Data set [1] can be described thus: Steady-state pharmacokinetics of oral TU alone or with finasteride. The note with it: seventh day of dosing, all treatments (Fig. 2A). Type of data set: in vivo, men.
For the next data set, the system named is 5α-reductase. The note with it: finasteride 2 mg daily; ref Steiner, 1996; cited from earlier work.
For data set [2], the system named is endogenous testosterone production. To be noted: 300 µg/kg subcutaneous, normal healthy men; ref Herbst et al., 2004; cited from earlier work.

Take `CCCCCCCCCCC(=O)O[C@H]1CC[C@H]2[C@@H]3CCC4=CC(=O)CC[C@]4(C)[C@H]3CC[C@]12C` [TU + placebo, testosterone undecanoate]: in data set [1], the “Time after dosing at which mean serum testosterone concentrations peaked” value was found to be 4 h.

On to `CC(C)(C)NC(=O)[C@H]1CC[C@H]2[C@@H]3CC[C@H]4NC(=O)C=C[C@]4(C)[C@H]3CC[C@]12C` [finasteride], for which, in the data set on 5α-reductase, the “Reduction of circulating levels of DHT” value is listed as 50%.

On to acyline, for which, in data set [2], the “Duration of testosterone suppression” value is recorded as 2 weeks and the “Time to suppression of testosterone to castrate levels” value is given as at most 24 h.
